What all share (assay type): in vivo
Data set [1] relates to 6C3HED lymphosarcoma (Gardner lymphosarcoma, GLS). As to the kind of experiment: Antitumor activity in C3H mice bearing 6C3HED lymphosarcoma allograft, oral administration. As to conditions: for Percent Inhibition of tumor growth: tumor measured five days after treatment ended. The text has this:
A third tumor model employed C3H mice bearing the widely used allograft 6C3HED lymphosarcoma, also known as the Gardner lymphosarcoma (GLS). The 6C3HED lymphosarcoma was obtained from the Division of Cancer Treatment, National Cancer Institute, Tumor Bank, maintained at E.G. and G. Mason Research (Worcester, Mass.).
(§1) First passage tumors were stored in liquid nitrogen, using standard techniques. The transplanted tumor was reestablished from the Tumor Bank every six months or as needed. The tumor was maintained by serial passage twice weekly in the host mice.
(§2) In the procedures utilized here, the tumor was removed from passage animals and minced into 1- to 3-mm cubic fragments using sterile techniques. Tumor pieces were checked for sterility using both Antibiotic Medium 1 and Brain Heart Infusion (Difco, Detroit, Mich.). The xenograft tumor pieces were implanted into the recipient CD1 Nu/Nu mice subcutaneously in an axillary site by trochar. The allograft 6C3HED tumor pieces were implanted into the recipient C3H mice in an analogous fashion.
Drug therapy on the appropriate schedule was initiated seven days after tumor implantation. […] The total dosage volume for each administration was 0.5 ml. All animals were weighed at the beginning and end of administration of the subject compounds. Food and water were provided ad libitum.
(§3) Each control group and each dosage level of the treated groups consisted of 9 or 10 mice selected at random from the pool of implanted animals. The formulations were administered orally by gavage with the use of an 18-gauge needle. Compounds were dosed daily for 10 days for the studies using the human tumor xenografts and 8 days for the studies using the allograft.
The tumor was measured five days after treatment ended with two dimensional measurements (width and length) of the tumor taken using digital electronic calipers interfaced to a microcomputer. […] Tumor weights were calculated from these measurements using the following formula: [formula]

Data set [2] deals with HXGC3 human colon adenocarcinoma. As to the kind of experiment: Antitumor activity in mice bearing HXGC3 human colon adenocarcinoma xenograft, oral administration. As to conditions: for Toxic/Total (mice which died relative to total in group): HXGC3, oral gavage daily for 10 days; for Percent Inhibition of tumor growth: po.
Text: (§4) Two of the tumor models used for showing the anti-neoplastic activity of the sulfonylureas of this invention were the human colon xenografts, HXGC3 and VRC5. J. A. Houghton and D. M. Taylor, British Journal of Cancer, 37:213-223 (1978). These tumors were obtained from St. Jude's Children's Research Hospital and have been widely used as human tumor models.
as §1, §2
(§5) Drug therapy on the appropriate schedule was initiated seven days after tumor implantation. The compound being tested was mixed with 2.5% Emulphor EL620 from GAF Corporation (1:40 dilution in 0.9% saline). The total dosage volume for each administration was 0.5 ml. All animals were weighed at the beginning and end of administration of the subject compounds. Food and water were provided ad libitum.
as §3
(§6) The tumor was measured five days after treatment ended with two dimensional measurements (width and length) of the tumor taken using digital electronic calipers interfaced to a microcomputer. J. F. Worzalla, et Investigational New Drugs, 8:241-251 (1990). Tumor weights were calculated from these measurements using the following formula: [formula] At least one control group of an equal number of mice was treated with the same volume of 2.5% Emulphor only. The percent inhibition is determined by subtracting the ratio of the mean tumor size of the test group relative to the control group from one and multiplying the result by 100.
(§7) The results of several experiments in mice bearing the HXGC3 and VRC5 human colon adenocarcinomas and the 6C3HED lymphosarcoma when the Formula I compounds were administered orally are provided in Table I. In the table, Column 1 refers to the example number of the compound tested; Column 2 describes the particular human tumor xenograft or mouse allograft being studied; Column 3 gives the dosage level of the compound of Formula I in milligrams per kilogram of body weight; Column 4 describes the percent inhibition of tumor growth; and Column 5 tallies the number of mice which died during the course of the experiment relative to the total number of animals in the group.
For orientation: Xenograft models place foreign cells or tissue in a host animal.

Data set [3] deals with VRC5 human colon adenocarcinoma. Briefly: Antitumor activity in mice bearing VRC5 human colon adenocarcinoma xenograft, oral administration. The conditions noted are these: for Toxic/Total (mice which died relative to total in group): VRC5, oral gavage daily for 10 days; for Percent Inhibition of tumor growth: po.
Text: as §4, §1, §2, §5, §3, §6, §7

[4] abbreviates: Mus musculus, 6C3HED, po, read-out: Percent Inhibition of tumor growth.
[5] abbreviates: 6C3HED, 150 mg/kg, oral gavage daily for 8 days.
[6] abbreviates: 6C3HED, 300 mg/kg, oral gavage daily for 8 days.
Where [7] appears, read: 6C3HED, 600 mg/kg, oral gavage daily for 8 days.

Values joined by “and” are separate entries in the source; they are usually repeats but may differ in a detail not shown here. Equal entries are not always repeated.

As to `Nc1ccc(S(=O)(=O)NC(=O)Nc2ccc(Cl)c(Cl)c2)cc1` [Example 8, N-[[(3,4-dichlorophenyl)amino]-carbonyl]-4-(amino) benzenesulfonamide], in data set [1] (setting [4]), the inhibition in vivo at 194 mg/kg came out at 34%, the inhibition in vivo at 388 mg/kg is 29% and the inhibition in vivo at 775 mg/kg came out at 100%. In data set [1] (mouse, in vivo), the “Toxic/Total (mice which died relative to total in group)” value was 1/10 and 0/10.
Consider `CCN(CC)c1ccc(S(=O)(=O)NC(=O)Nc2ccc(Cl)c(Cl)c2)cc1` [Example 12], for which the “Toxic/Total (mice which died relative to total in group)” value in data set [1] (setting [5]) and in data set [1] (setting [6]) was 0/10 throughout. For the same compound, in data set [1] (setting [4]), the inhibition in vivo at 150 mg/kg stood at 54%. The inhibition in vivo at 300 mg/kg in data set [1] (setting [4]) worked out at 70%.
As to `CN(C)c1cccc(S(=O)(=O)NC(=O)Nc2ccc(Cl)cc2)c1` [Example 4, N-[[(4-chlorophenyl)amino]carbonyl]-3-(dimethylamino)benzenesulfonamide], the “Toxic/Total (mice which died relative to total in group)” value in data set [1] (setting [5]) and in data set [1] (setting [6]) was 0/10 throughout. Also, the inhibition in vivo at 150 mg/kg in data set [1] (setting [4]) is 73%. In addition, the inhibition in vivo at 300 mg/kg in data set [1] (setting [4]) amounted to 95%.
For `CNc1ccc(S(=O)(=O)NC(=O)Nc2ccc(Cl)c(Cl)c2)cc1` [Example 10], in data set [1] (setting [4]), the inhibition in vivo at 300 mg/kg is 100% and the inhibition in vivo at 600 mg/kg worked out at 100%. In addition, the “Toxic/Total (mice which died relative to total in group)” value in data set [1] (mouse, in vivo) was 2/10 and 0/10.
With `O=C(Nc1ccc(Cl)cc1)NS(=O)(=O)c1ccc(N2CCOCC2)cc1` [Example 6, N-[[(4-chlorophenyl)amino]-carbonyl]-4-(4-morpholinyl) benzenesulfonamide], the “Toxic/Total (mice which died relative to total in group)” value in data set [1] (setting [5]) is recorded as 0/10. Further, the “Toxic/Total (mice which died relative to total in group)” value in data set [1] (setting [6]) is listed as 0/10. In data set [1] (setting [4]), the inhibition in vivo at 150 mg/kg came out at 17% and the inhibition in vivo at 300 mg/kg was found to be 38%.
`CN(C)c1ccc(S(=O)(=O)NC(=O)Nc2ccc(Cl)cc2)cc1` [Example 1, N-[[(4-chlorophenyl)amino]carbonyl]-4-(dimethylamino)benzenesulfonamide]: the “Toxic/Total (mice which died relative to total in group)” value was 0/10 in data set [1] (6C3HED, 37.5 mg/kg, oral gavage daily for 8 days); 0/10 in data set [1] (6C3HED, 75 mg/kg, oral gavage daily for 8 days); 0/10 in data set [1] (setting [5]); 0/10 in data set [1] (setting [6]); 10/10 in data set [1] (setting [7]). Also, the “Percent Inhibition of tumor growth” value in data set [1] (setting [7]) is listed as “Toxic”. For the same compound, in data set [1] (setting [4]), the inhibition in vivo at 37.5 mg/kg worked out at 80%. Besides, the inhibition in vivo at 75 mg/kg in data set [1] (setting [4]) is 99%. Besides, the inhibition in vivo at 150 mg/kg in data set [1] (setting [4]) came to 100%. In addition, in data set [1] (setting [4]), the inhibition in vivo at 300 mg/kg was 100%.
Turning to `CCNc1ccc(S(=O)(=O)NC(=O)Nc2ccc(Cl)cc2)cc1` [Example 5, N-[[(4-chlorophenyl)amino]carbonyl]-4-(ethylamino)benzenesulfonamide], the “Toxic/Total (mice which died relative to total in group)” value in data set [1] (setting [6]) is recorded as 0/10. Further, the inhibition in vivo at 300 mg/kg in data set [1] (setting [4]) was found to be 74%.
Regarding `O=C(Nc1ccc(Cl)cc1)NS(=O)(=O)c1ccc(N2CCCC2)cc1` [Example 7, N-[[(4-chlorophenyl)amino]-carbonyl]-4-(1-pyrrolidinyl) benzenesulfonamide], the “Toxic/Total (mice which died relative to total in group)” value in data set [1] (setting [5]) and in data set [1] (setting [6]) was 0/10 throughout. The inhibition in vivo at 150 mg/kg in data set [1] (setting [4]) was found to be 44%. Also, the inhibition in vivo at 300 mg/kg in data set [1] (setting [4]) is 48%.
Regarding `CN(C)c1ccc(S(=O)(=O)NC(=O)Nc2ccc(Cl)c(Cl)c2)cc1` [Example 2, N-[[(3,4-dichlorophenyl)amino]carbonyl]-4-(dimethylamino)benzenesulfonamide], the “Toxic/Total (mice which died relative to total in group)” value is reported as 0/10 in data set [1] (6C3HED, 20 mg/kg, oral gavage daily for 8 days); 0/10 in data set [1] (6C3HED, 40 mg/kg, oral gavage daily for 8 days); 0/10 in data set [1] (6C3HED, 80 mg/kg, oral gavage daily for 8 days); 0/10 in data set [1] (6C3HED, 160 mg/kg, oral gavage daily for 8 days); 0/10 in data set [2] (150 mg/kg); 0/10 in data set [2] (300 mg/kg). The “Toxic/Total (mice which died relative to total in group)” value was 1/10 in data set [2] (600 mg/kg); 1/10 in data set [2] (1200 mg/kg); 0/10 in data set [3] (150 mg/kg); 0/10 in data set [3] (300 mg/kg); 1/10 in data set [3] (600 mg/kg); 0/10 in data set [3] (1200 mg/kg). The inhibition in vivo at 20 mg/kg in data set [1] (setting [4]) came out at 35%. Also, the inhibition in vivo at 40 mg/kg in data set [1] (setting [4]) worked out at 51%. The inhibition in vivo at 80 mg/kg in data set [1] (setting [4]) came out at 89%. Besides, the inhibition in vivo at 160 mg/kg in data set [1] (setting [4]) worked out at 97%. For the same compound, the “Percent Inhibition of tumor growth” value in data set [2] (150 mg/kg), in data set [2] (300 mg/kg), in data set [2] (600 mg/kg), in data set [2] (1200 mg/kg), in data set [3] (150 mg/kg) and in data set [3] (300 mg/kg) was 100% in each case. In addition, the “Percent Inhibition of tumor growth” value in data set [3] (600 mg/kg) and in data set [3] (1200 mg/kg) was 100% in each case.
`CNc1ccc(S(=O)(=O)NC(=O)Nc2ccc(Cl)cc2)cc1` [Example 9]: the “Toxic/Total (mice which died relative to total in group)” value in data set [1] (setting [6]) and in data set [1] (setting [7]) was 0/10 in each case. Moreover, the “Percent Inhibition of tumor growth” value in data set [1] (setting [6]) and in data set [1] (setting [7]) was 100% in each case.
With `CC(C)Nc1ccc(S(=O)(=O)NC(=O)Nc2ccc(Cl)c(Cl)c2)cc1` [Example 11], in data set [1] (setting [5]), the “Toxic/Total (mice which died relative to total in group)” value is recorded as 0/10 and the “Percent Inhibition of tumor growth” value is on record as 71%. In addition, in data set [1] (setting [6]), the “Toxic/Total (mice which died relative to total in group)” value is listed as 1/10 and the “Percent Inhibition of tumor growth” value stood at 96%.
